The numbers were not newly measured in patent US20040071685A1, “Compositions and methods for increasing the bioavailability of plant polyphenols” (priority 2002, published 2004), which cites them from elsewhere.

For data set [1] the following is noted: rats, 15 μM administered in the stomach in situ, after 30 minutes.
The conditions of data set [2]: rats, oral, 700 μM/kg body weight.
The conditions of data set [3]: adults.
Data set [4] concerns alpha-glucosidase (invertase).

As for `O=c1c(O)c(-c2ccc(O)c(O)c2)oc2cc(O)cc(O)c12` [quercetin], in data set [1], the “amount found in the bile samples” value is 4.1 µM and the “amount remaining in the stomach” value is 8.6 µM. In the case of `O=C(O)/C=C/c1ccc(O)c(O)c1` [caffeic acid], in data set [2], the “maximum serum level of conjugates” value was 0.64 µM and the “time of maximum serum levels” value was 2 h. For the molecule `O=c1c(-c2ccc(O)cc2)coc2cc(O)cc(O)c12` [genistein], in data set [3], the volume of distribution result was “large”. In addition, the type of inhibition entry in data set [4] is on record as “reversible, slow-binding, non-competitive inhibitor”. `O=c1c(O[C@@H]2O[C@H](CO)[C@@H](O)[C@H](O)[C@H]2O)c(-c2ccc(O)c(O)c2)oc2cc(O)cc(O)c12` [isoquercitrin]: the “amount remaining in the stomach” value in data set [1] is 15 µM.

On to `O=c1c(-c2ccc(O)cc2)coc2cc(O)ccc12` [daidzein], for which, in data set [3], the volume of distribution entry was “large”. Regarding `C[C@@H]1O[C@@H](OC[C@H]2O[C@@H](Oc3c(-c4ccc(O)c(O)c4)oc4cc(O)cc(O)c4c3=O)[C@H](O)[C@@H](O)[C@@H]2O)[C@H](O)[C@H](O)[C@H]1O` [rutin], the “amount remaining in the stomach” value in data set [1] is 15 µM.
